Assay [1] deals with Calu-1 cells. Briefly: Erastin-induced ferroptosis in Calu-1 cells with NOX pathway inhibitors. Format: cell-based, human. Here is the method:
(§1) Cell viability was typically assessed in 384-well format by Alamar Blue (Invitrogen) fluorescence (ex/em 530/590) measured on a Victor3 platereader (Perkin Elmer, Waltham, Mass.). In some experiments, Trypan Blue dye exclusion counting was performed using an automated cell counter (ViCell, Beckman-Coulter Inc., Brea, Calif.). Cell viability in test conditions is reported as a percentage relative to the negative control treatment.

In assay [2] the test system is SLC7A11 mRNA in HT-1080 cells. Nature of the assay: SLC7A11 mRNA levels by RT-qPCR. The class given is cell-based, human. Here is the method:
RNA was extracted using the Qiashredder and Qiagen RNeasy Mini kits (Qiagen) according to the manufacturer's protocol. 2 μg total RNA for each sample was used as input for each reverse transcription reaction, performed using the TaqMan RT kit (Applied Biosystems, Life Technologies Corp., Carlsbad, Calif.). Primer pairs were designed for target transcripts using Primer Express 2.0 (Applied Biosystems). Quantitative PCR reactions were performed using the Power SYBR Green PCR Master Mix (Applied Biosystems). Triplicate samples per condition were analyzed on an Applied Biosystems 7300 qPCR instrument using absolute quantification settings. Differences in mRNA levels compared to HPRT1 or ACTB internal reference control were computed between control and experimental conditions using the ΔΔCt method.
In general terms: In qPCR the cycle at which signal appears reflects the starting amount.

The subject of assay [3] is HT-1080 cells. Nature of the assay: Erastin-induced death in HT-1080 cells with co-treated inhibitors (viability, microscopy). The class given is cell-based, human. Particulars: HT-1080 cells. Here is the method:
as §1
Phase contrast images were acquired using an AMG EVOS FL (Advanced Microscopy Group) microscope equipped with a 10× phase-contrast objective. Three independent fields were acquired for each experimental condition. Representative samples from one field of view are shown.

The target in assay [4] is T1, system xc− (Homo sapiens, UniProt Q9UPY5).
T1 construct: endogenous in cells; host or cells: HT-1080 (American Type Culture Collection)
T1 sequence (Q9UPY5 1-501): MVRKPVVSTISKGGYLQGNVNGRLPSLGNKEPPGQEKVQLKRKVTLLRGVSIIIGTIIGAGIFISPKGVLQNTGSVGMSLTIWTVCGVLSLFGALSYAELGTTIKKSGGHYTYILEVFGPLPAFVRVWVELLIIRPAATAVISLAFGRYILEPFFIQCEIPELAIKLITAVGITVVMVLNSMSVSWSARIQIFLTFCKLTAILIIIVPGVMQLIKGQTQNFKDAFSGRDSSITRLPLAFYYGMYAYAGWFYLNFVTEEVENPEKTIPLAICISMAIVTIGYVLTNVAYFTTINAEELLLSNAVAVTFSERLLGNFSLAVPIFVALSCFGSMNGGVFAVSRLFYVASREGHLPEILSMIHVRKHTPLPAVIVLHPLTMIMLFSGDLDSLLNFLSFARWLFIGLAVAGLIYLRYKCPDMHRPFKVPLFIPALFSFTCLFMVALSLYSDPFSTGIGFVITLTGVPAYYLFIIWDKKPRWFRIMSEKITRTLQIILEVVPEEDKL
T1 sequence (P08195 1-529 partner): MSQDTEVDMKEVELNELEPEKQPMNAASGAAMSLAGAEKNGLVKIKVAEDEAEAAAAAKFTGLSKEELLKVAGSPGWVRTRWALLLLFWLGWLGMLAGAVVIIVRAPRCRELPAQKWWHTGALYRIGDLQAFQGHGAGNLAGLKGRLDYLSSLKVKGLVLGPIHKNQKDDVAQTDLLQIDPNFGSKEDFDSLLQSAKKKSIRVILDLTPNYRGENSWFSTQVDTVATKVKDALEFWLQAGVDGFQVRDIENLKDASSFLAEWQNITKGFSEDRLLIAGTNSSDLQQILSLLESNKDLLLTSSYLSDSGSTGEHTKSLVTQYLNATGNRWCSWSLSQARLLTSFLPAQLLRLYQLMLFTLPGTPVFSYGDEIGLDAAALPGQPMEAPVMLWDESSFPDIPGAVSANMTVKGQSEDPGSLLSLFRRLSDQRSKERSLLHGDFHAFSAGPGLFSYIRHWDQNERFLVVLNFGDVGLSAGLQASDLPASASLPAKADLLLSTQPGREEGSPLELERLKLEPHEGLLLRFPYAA
Briefly: [14C]cystine uptake assay (Na+-independent). The class given is cell-based. As to conditions: HT-1080 cells; erastin 10 μM, glutamate 50 mM, SAS 1 mM. As to the method: 200,000 HT-1080 cells/well were seeded overnight in 6-well dishes (Corning). […] At this point, in each well the buffer was replaced with 600 μL uptake buffer containing compound and 0.12 μCi (80-110 mCi/mmol) of L-[3,3′-^14C]-cystine (Perkin Elmer) and incubated for 3 minutes at 37° C. Cells were then washed three times with ice-cold uptake buffer and lysed in 500 μL 0.1 M NaOH. To this lysate was added 15 mL of scintillation fluid and radioactive counts per minute were obtained using a scintillation counter. All measurements were performed in triplicate for each condition.

The subject of assay [5] is BJeLR and HT-1080 cells. Nature of the assay: Measurement of ATP levels. The class given is cell-based, human. Particulars: normalized to viability. As to the method:
ATP levels were evaluated using the ApoSENSOR ATP Assay Kit (Biovision Inc., Milpitas, Calif.) according to the manufacturer's instructions. 2000 HT-1080 or BJeLR cells were seeded in 96-well white bottom plates (Falcon). Cells were treated 12 hours later with compound as above for the TEM. Prior to luminescence measurement, medium was removed and cells were lysed and incubated with ATP Monitoring Enzyme. Luminescence was measured using a Victor3 platereader equipped with an infrared emission filter every 30 seconds for 10 minutes. Typically the first reading was used for data analysis. Parallel cell culture treatments were performed in 96-well clear bottom plates and cell viability was determined using Alamar Blue. These values were used to normalize ATP levels to cell viability.

For assay [6], the system named is BJeLR cells. Nature of the assay: Erastin-induced death and ROS production in BJeLR cells. Format: cell-based, human. Particulars: erastin 10 μM, 6-AN 200 μM. As to the method:
The day before the experiment, 200,000 cells/well were seeded in 6-well dishes (Corning Inc., Corning, N.Y.). The day of the experiment, cells were treated with test compounds for the indicated times, then harvested by trypsinization, resuspended in 500 μL Hanks Balanced Salt Solution (HBSS, Gibco, Invitrogen Corp., Carlsbad, Calif.) containing either H2DCFDA (25 μM), C11-BODIPY(581/591) (2 μM) or MitoSOX (5 μM) (all from Molecular Probes, Invitrogen) and incubated for 10 minutes at 37° C. in a tissue culture incubator. Cells were then resuspended in 500 μL of fresh HBSS, strained through a […] cell strainer (BD Falcon, BD Biosciences, San Jose, Calif.), and analyzed using a flow cytometer (FACSCalibur or Accuri C6, BD Biosciences), which was equipped with 488-nm laser for excitation. Data was collected from the FL1 (H2DCFDA, C11-BODIPY) or FL2 channel (MitoSOX). A minimum of 10,000 cells were analyzed per condition.
as §1

Turning to `CN(C)c1cccc(-c2c3c(=O)n(-c4ccccc4Cl)[nH]c3cc(=O)n2C)c1` [GKT137831], in assay [1], the “suppression of erastin-induced ferroptosis in Calu-1” value (“suppression” below) is “strongly suppressed”.
Regarding `OCCS` [β-ME, β-mercaptoethanol, reference compound], the “effect on erastin/SAS-induced SLC7A11 upregulation” value in assay [2] is on record as “suppressed”. Also, the “inhibition of cell death induced by erastin, SAS and glutamate” value in assay [3] is listed as “strongly inhibited cell death”.
Take `O=C(O)c1cc(/N=N/c2ccc(S(=O)(=O)Nc3ccccn3)cc2)ccc1O` [SAS, sulfasalazine]: the “Na+-independent uptake of [14C]cystine” value in assay [4] was “abolished”.
On to `N[C@@H](CCC(=O)O)C(=O)O` [glutamate], for which the “Na+-independent uptake of [14C]cystine” value in assay [4] was “abolished”.
Consider `OO` [H2O2], for which the “intracellular ATP” value in assay [5] is on record as “substantial depletion of intracellular ATP”.
Regarding `NC(=O)c1ccc(N)nc1` [6-AN, 6-aminonicotinamde], the “suppression” value in assay [1] is on record as “strongly suppressed”. In assay [6], the “cell death and ROS production in erastin-treated BJeLR” value was “prevented cell death as well as ROS production”.
As for `COC(=O)c1ccc([C@@H]2c3[nH]c4ccccc4c3C[C@@H](C(=O)OC)N2C(=O)CCl)cc1` [RSL3], the “Na+-independent uptake of [14C]cystine” value in assay [4] is “had no effect”.
On to `c1ccc2c(c1)[I+]c1ccccc1-2` [DPI, diphenylene iodonium], for which, in assay [1], the “suppression” value is given as “strongly suppressed”.

The record behind these values is patent US9580398B2, “Compounds, compositions, and methods for modulating ferroptosis and treating excitotoxic disorders” (The Trustees of Columbia University in the City of New York, priority 2012, dated 2017).
